Experimental data reported in BindingDB's records for doi:10.1021/jm7010194 (Abbott Laboratories, 2007).

Target: T1, ATP-sensitive inward rectifier potassium channel 11 (Homo sapiens, UniProt Q14654)
T1 sequence (Q14654 whole entry): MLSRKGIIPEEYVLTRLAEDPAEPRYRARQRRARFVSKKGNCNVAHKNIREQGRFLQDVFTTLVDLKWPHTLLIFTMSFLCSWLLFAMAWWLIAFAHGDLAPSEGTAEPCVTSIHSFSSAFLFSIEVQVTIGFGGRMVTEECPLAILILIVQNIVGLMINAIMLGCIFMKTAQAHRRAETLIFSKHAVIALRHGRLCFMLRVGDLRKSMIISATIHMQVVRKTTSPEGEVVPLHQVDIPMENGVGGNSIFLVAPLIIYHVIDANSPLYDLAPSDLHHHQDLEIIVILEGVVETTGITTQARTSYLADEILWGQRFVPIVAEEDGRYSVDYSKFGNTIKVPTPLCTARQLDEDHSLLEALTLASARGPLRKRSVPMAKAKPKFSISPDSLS
Test: Channel opening activity at human bladder Kir6.2 channel containing SUR2B expressed in L cells by FLIPR assay

Row | SMILES | EC50
1 | CC(Cl)(Cl)[C@@H](NC(=O)c1ccc(Cl)cc1)N/C(=N/C#N)Nc1cccnc1 | 339 nM
2 | COc1ncccc1NC(=NC#N)NC(NC(=O)c1ccc(Cl)cc1)C(C)(Cl)Cl (stereo unspecified) | 9770 nM
3 | CC(Cl)(Cl)C(NC(=O)c1ccc(Cl)cc1)NC(=NC#N)Nc1cccnc1Cl (stereo unspecified) | 6030 nM
4 | CC(Cl)(Cl)C(NC(=O)c1cccs1)N/C(=N/C#N)Nc1ccc(F)nc1 (stereo unspecified) | 4570 nM
5 | Cc1cccc(C(=O)NC(N/C(=N/C#N)Nc2ccc(Cl)nc2)C(C)(Cl)Cl)c1 (stereo unspecified) | 1700 nM
6 | CC(Cl)(Cl)C(NC(=O)c1ccc(OC(F)(F)F)cc1)N/C(=N/C#N)Nc1ccc(F)nc1 (stereo unspecified) | 8910 nM
7 | CC(Cl)(Cl)C(NC(=O)c1cc(Cl)cc(Cl)c1)N/C(=N/C#N)Nc1ccc(C(F)(F)F)nc1 (stereo unspecified) | 3720 nM
8 | COc1ccc(N/C(=N\C#N)NC(NC(=O)c2ccc(Cl)cc2)C(C)(Cl)Cl)cn1 (stereo unspecified) | 10500 nM
9 | CC(Cl)(Cl)C(NC(=O)c1ccc(C(F)(F)F)cc1)N/C(=N/C#N)Nc1ccc(C(F)(F)F)nc1 (stereo unspecified) | 26900 nM
10 | Cc1cncc(N/C(=N\C#N)NC(NC(=O)c2ccc(Cl)cc2)C(C)(Cl)Cl)c1 (stereo unspecified) | 759 nM
11 | Cc1ccc(C(=O)NC(N/C(=N/C#N)Nc2ccc(C(F)(F)F)nc2)C(C)(Cl)Cl)cc1 (stereo unspecified) | 3800 nM
12 | CC(Cl)(Cl)C(NC(=O)c1ccc(Br)cc1)N/C(=N/C#N)Nc1ccc(C(F)(F)F)nc1 (stereo unspecified) | > 100000 nM
13 | Cc1nc(C(F)(F)F)ccc1N/C(=N\C#N)NC(NC(=O)c1ccc(Cl)cc1)C(C)(Cl)Cl (stereo unspecified) | 9550 nM
14 | Cc1ccc(C(=O)NC(N/C(=N/C#N)Nc2ccc(F)nc2)C(C)(Cl)Cl)cc1 (stereo unspecified) | 4270 nM
15 | CC(Cl)(Cl)C(NC(=O)c1cccs1)N/C(=N/C#N)Nc1cncc(Br)c1 (stereo unspecified) | 1290 nM
16 | CC(Cl)(Cl)C(NC(=O)c1ccc(Cl)cc1)N/C(=N/C#N)Nc1ccccc1F (stereo unspecified) | 12000 nM
17 | CC(Cl)(Cl)C(NC(=O)c1cc(Cl)cc(Cl)c1)N/C(=N/C#N)Nc1ccc(Cl)nc1 (stereo unspecified) | 813 nM
18 | CC(Cl)(Cl)C(NC(=O)c1cccs1)N/C(=N/C#N)Nc1ccc(Cl)nc1 (stereo unspecified) | 2750 nM
19 | CC(Cl)(Cl)C(NC(=O)c1ccc(Cl)cc1)N/C(=N/C#N)Nc1ccc(Cl)nc1 (stereo unspecified) | 457 nM

Row | SMILES | EC50
20 | Cc1ccc(C(=O)NC(N/C(=N/C#N)Nc2cncc(Br)c2)C(C)(Cl)Cl)cc1 (stereo unspecified) | 1320 nM
21 | CC(Cl)(Cl)C(NC(=O)c1cc(Cl)cc(Cl)c1)N/C(=N/C#N)Nc1ccc(F)nc1 (stereo unspecified) | 2040 nM
22 | CC(Cl)(Cl)C(NC(=O)c1cc(F)cc(F)c1)N/C(=N/C#N)Nc1ccc(F)nc1 (stereo unspecified) | 4270 nM
23 | CC(Cl)(Cl)C(NC(=O)c1ccc(Br)cc1)N/C(=N/C#N)Nc1ccc(Cl)nc1 (stereo unspecified) | 537 nM
24 | CC(Cl)(Cl)C(NC(=O)c1cccc(Cl)c1)N/C(=N/C#N)Nc1ccc(F)nc1 (stereo unspecified) | 2290 nM
25 | Cc1ccc(N/C(=N\C#N)NC(NC(=O)c2ccc(Cl)cc2)C(C)(Cl)Cl)cn1 (stereo unspecified) | 2240 nM
26 | CC(Cl)(Cl)C(NC(=O)c1cccc(F)c1)N/C(=N/C#N)Nc1ccc(Cl)nc1 (stereo unspecified) | 5370 nM
27 | CC(Cl)(Cl)C(NC(=O)c1cc(F)cc(F)c1)N/C(=N/C#N)Nc1ccc(C(F)(F)F)nc1 (stereo unspecified) | 1180 nM
28 | CC(Cl)(Cl)[C@@H](NC(=O)c1ccc(Cl)cc1)N/C(=N/C#N)Nc1ccc(Cl)nc1 | 1070 nM
29 | CC(Cl)(Cl)C(NC(=O)c1ccc(F)cc1)N/C(=N/C#N)Nc1ccc(C(F)(F)F)nc1 (stereo unspecified) | 2090 nM
30 | COc1cc(OC)cc(C(=O)NC(N/C(=N/C#N)Nc2ccc(Cl)nc2)C(C)(Cl)Cl)c1 (stereo unspecified) | 8910 nM
31 | CC(Cl)(Cl)C(NC(=O)c1ccc(OC(F)(F)F)cc1)N/C(=N/C#N)Nc1ccc(Cl)nc1 (stereo unspecified) | 5370 nM
32 | CC(Cl)(Cl)C(NC(=O)c1cccs1)N/C(=N/C#N)Nc1ccc(C(F)(F)F)nc1 (stereo unspecified) | 1740 nM
33 | CC(Cl)(Cl)C(NC(=O)c1cccc(Cl)c1)N/C(=N/C#N)Nc1ccc(C(F)(F)F)nc1 (stereo unspecified) | 6760 nM
34 | CC(Cl)(Cl)C(NC(=O)c1ccc(Cl)cc1)N/C(=N/C#N)Nc1cncc(Br)c1 (stereo unspecified) | 646 nM
35 | Cc1cccc(C(=O)NC(N/C(=N/C#N)Nc2cncc(Br)c2)C(C)(Cl)Cl)c1 (stereo unspecified) | 1660 nM
36 | CC(Cl)(Cl)C(NC(=O)c1ccc(I)cc1)N/C(=N/C#N)Nc1ccc(Cl)nc1 (stereo unspecified) | 891 nM
37 | CC(Cl)(Cl)C(NC(=O)c1ccc(I)cc1)N/C(=N/C#N)Nc1ccc(C(F)(F)F)nc1 (stereo unspecified) | 7760 nM
38 | CC(Cl)(Cl)C(NC(=O)c1ccc(F)cc1)N/C(=N/C#N)Nc1ccc(Cl)nc1 (stereo unspecified) | 1290 nM

Row | SMILES | EC50
39 | CC(Cl)(Cl)C(NC(=O)c1ccc(Cl)cc1)N/C(=N/C#N)Nc1ccc(C(F)(F)F)nc1 (stereo unspecified) | 1620 nM
40 | CC(Cl)(Cl)C(NC(=O)c1ccc(Cl)cc1)N/C(=N/C#N)Nc1ccc(F)nc1 (stereo unspecified) | 1510 nM
41 | Cc1ccc(C(=O)NC(N/C(=N/C#N)Nc2ccc(Cl)nc2)C(C)(Cl)Cl)cc1 (stereo unspecified) | 912 nM
42 | CC(Cl)(Cl)C(NC(=O)c1ccccc1)N/C(=N/C#N)Nc1ccc(Cl)nc1 (stereo unspecified) | 2040 nM
43 | CC(Cl)(Cl)C(NC(=O)c1cccc(Cl)c1)N/C(=N/C#N)Nc1cncc(Br)c1 (stereo unspecified) | 776 nM
44 | CC(Cl)(Cl)[C@H](NC(=O)c1ccc(Cl)cc1)N/C(=N/C#N)Nc1ccc(Cl)nc1 | 2140 nM
45 | CC(Cl)(Cl)C(NC(=O)c1cc(F)cc(F)c1)N/C(=N/C#N)Nc1ccc(Cl)nc1 (stereo unspecified) | 1100 nM
46 | CC(Cl)(Cl)C(NC(=O)c1ccc(OC(F)(F)F)cc1)N/C(=N/C#N)Nc1cncc(Br)c1 (stereo unspecified) | > 100000 nM
47 | CC(Cl)(Cl)C(NC(=O)c1ccc(F)cc1)N/C(=N/C#N)Nc1cncc(Br)c1 (stereo unspecified) | 955 nM
48 | Cc1cccc(C(=O)NC(N/C(=N/C#N)Nc2ccc(F)nc2)C(C)(Cl)Cl)c1 (stereo unspecified) | 4270 nM
49 | CC(Cl)(Cl)C(NC(=O)c1cc(Cl)cc(Cl)c1)N/C(=N/C#N)Nc1cncc(Br)c1 (stereo unspecified) | 2630 nM
50 | CC(Cl)(Cl)C(NC(=O)c1ccc(C(F)(F)F)cc1)N/C(=N/C#N)Nc1ccc(Cl)nc1 (stereo unspecified) | 5010 nM
51 | COc1cnccc1C(=O)NC(N/C(=N/C#N)Nc1ccc(Cl)nc1)C(C)(Cl)Cl (stereo unspecified) | 6610 nM
52 | CC(Cl)(Cl)C(NC(=O)c1cccc(F)c1)N/C(=N/C#N)Nc1ccc(C(F)(F)F)nc1 (stereo unspecified) | 2290 nM
53 | CC(Cl)(Cl)C(NC(=O)c1cc(F)cc(F)c1)N/C(=N/C#N)Nc1cncc(Br)c1 (stereo unspecified) | 1100 nM
54 | Cc1cccc(C(=O)NC(N/C(=N/C#N)Nc2ccc(C(F)(F)F)nc2)C(C)(Cl)Cl)c1 (stereo unspecified) | 2570 nM
55 | CC(Cl)(Cl)C(NC(=O)c1cccc(Cl)c1)N/C(=N/C#N)Nc1ccc(Cl)nc1 (stereo unspecified) | 1660 nM
56 | CC(Cl)(Cl)C(NC(=O)c1ccc(F)cc1)N/C(=N/C#N)Nc1ccc(F)nc1 (stereo unspecified) | 11700 nM
